Earlier results on one compound are cited in patent publication EP3854219A1, “EDIBLE AND WATER-SOLUBLE CHEWABLE TOY FOR ANIMALS, IN PARTICULAR FOR THE RELEASE OF ACTIVE INGREDIENTS” (New Project S.r.l., priority 2020, dated 2021).

What is called LD50 is the dose at which mortality reaches 50%.

In this series the test system is rats. Conditions: oral ingestion.

Consider `CO` [methanol], for which the LD50 is on record as 5628 mg/kg.
